Patent publication US7750017B2, “Heterocycles” (Bayer Schering Pharma Aktiengesellschaft, priority 2004, dated 2010)
Counter-ions that a name gives are not always drawn.

Legend:
[1] = system: A431 cells [human epidermoid carcinoma, overexpressing HER1 (EGFR, ErbB1)]; test: In vitro tumor cell proliferation assay (Cell Titer-Glo luminescent cell viability), A431 cells; assay type: cell-based; conditions: A-431, 72 h, 72 hours of drug exposure, Cell Titer-Glo readout, read-out: IC50, anti-proliferative activity in A431 cells
[2] = system: BT474 [human breast carcinoma, overexpressing HER2 (ErbB2)]; test: In vitro tumor cell proliferation assay (Cell Titer-Glo luminescent cell viability), BT474 cells; assay type: cell-based; conditions: BT-474, 72 h, 72 hours of drug exposure, Cell Titer-Glo readout, read-out: IC50, anti-proliferative activity in BT474 cells

Structure (SMILES)	IC50 [1] [µM]	IC50 [2] [µM]
OC[C@H](O)c1ccc2c(c1)sc1ncnc(Nc3ccc(OCc4ccccn4)c(Cl)c3)c12 [Example 75, (1R)-1-(4-{[3-chloro-4-(pyridin-2-ylmethoxy)phenyl]amino}[1]benzothieno[2,3-d]pyrimidin-7-yl)ethane-1,2-diol]	≤ 50	≤ 0.5
Clc1cc(Nc2ncnc3sc4cc(N5CCOCC5)ccc4c23)ccc1OCc1ccccn1 [Example 76, N-[3-chloro-4-(pyridin-2-ylmethoxy)phenyl]-7-morpholin-4-yl[1]benzothieno[2,3-d]pyrimidin-4-amine trifluoroacetate]	≤ 50	≤ 0.5
Clc1cc(Nc2ncnc3sc4cc(NCCN5CCOCC5)ccc4c23)ccc1OCc1ccccn1 [Example 78, N4-[3-chloro-4-(pyridin-2-ylmethoxy)phenyl]-N7-(2-morpholin-4-ylethyl)[1] benzothieno[2,3-d]pyrimidine-4,7-diamine trifluoroacetate]	≤ 50	≤ 5
COCCCNc1ccc2c(c1)sc1ncnc(Nc3ccc(OCc4ccccn4)c(Cl)c3)c12 [Example 79, N4-[3-chloro-4-(pyridin-2-ylmethoxy)phenyl]-N7-(3-methoxypropyl)[1]benzothieno [2,3-d]pyrimidine-4,7-diamine trifluoroacetate]	≤ 50	≤ 5
CCOC(=O)Cc1ccc2c(c1)sc1ncnc(Nc3ccc(OCc4ccccn4)c(Cl)c3)c12 [Example 81, ethyl {4-[3-Chloro-4-(pyridin-2-ylmethoxy)-phenylamino]-benzo [4,5]thieno[2,3-d]pyrimidin-7-yl}-acetate trifluoroacetate]	≤ 50	≤ 5
Clc1cc(Nc2ncnc3sc4cc(CCN5CCOCC5)ccc4c23)ccc1OCc1ccccn1 [Example 84, N-[3-chloro-4-(pyridin-2-ylmethoxy)phenyl]-7-(2-morpholin-4-ylethyl)[1]benzothieno[2,3-d] pyrimidin-4-amine]	≤ 50	≤ 0.5

Next, values leading:

IC50 [1] [µM]	IC50 [2] [µM]	Structure (SMILES)
≤ 50	≤ 0.5	OC[C@@H](O)c1ccc2c(c1)sc1ncnc(Nc3ccc(OCc4ccccn4)c(Cl)c3)c12 [Example 74, (1S)-1-(4-{[3-chloro-4-(pyridin-2-ylmethoxy)phenyl]amino}[1]benzothieno[2,3-d]pyrimidin-7-yl)ethane-1,2-diol]
≤ 5	≤ 0.5	CN1CCN(c2ccc3c(c2)sc2ncnc(Nc4ccc(OCc5ccccn5)c(Cl)c4)c23)CC1 [Example 77, N-[3-chloro-4-(pyridin-2-ylmethoxy)phenyl]-7-(4-methylpiperazin-1-yl)[1]benzothieno [2,3-d]pyrimidin-4-amine trifluoroacetate]
≤ 5	≤ 0.5	OCCc1ccc2c(c1)sc1ncnc(Nc3ccc(OCc4ccccn4)c(Cl)c3)c12 [Example 82, 2-(4-{[3-chloro-4-(pyridin-2-ylmethoxy)phenyl]amino}[1]benzothieno[2,3-d]pyrimidin-7-yl) ethanol]
≤ 5	≤ 0.5	Clc1cc(Nc2ncnc3sc4cc(CCBr)ccc4c23)ccc1OCc1ccccn1 [Example 83, 7-(2-bromoethyl)-N-[3-chloro-4-(pyridin-2-ylmethoxy)phenyl][1] benzothieno[2,3-d]pyrimidin-4-amine]
≤ 5	≤ 0.5	CS(=O)(=O)CCNCCc1ccc2c(c1)sc1ncnc(Nc3ccc(OCc4ccccn4)c(Cl)c3)c12 [Example 85, N-[3-chloro-4-(pyridin-2-ylmethoxy)phenyl]-7-(2-{[2-(methylsulfonyl)ethyl]amino}ethyl) [1]benzothieno[2,3-d]pyrimidin-4-amine trifluoroacetate]
≤ 5	≤ 0.5	COCCNCCc1ccc2c(c1)sc1ncnc(Nc3ccc(OCc4ccccn4)c(Cl)c3)c12 [Example 86, N-[3-chloro-4-(pyridin-2-ylmethoxy)phenyl]-7-{2-[(2-methoxyethyl)amino]ethyl}[1] benzothieno[2,3-d]pyrimidin-4-amine trifluoroacetate]
